# Laboratory results as given in patent publication US7541374B2, “Malononitrile compounds and use thereof” (Sumitomo Chemical Company, Limited, priority 2004, dated 2009).
# Like-named read-outs stand apart in the source and are kept apart here.
# How the values were obtained:
# Format in all cases: in vivo
# Culex pipiens pallens = assay: Test Example 5: larvae in treated water, Culex pipiens pallens; settings: 24 h, read-out: rate of dead pests
# Protocol: The formulation obtained according to Formulation Example 5 using the compound of the present invention (1), (2), (3), (4), (5), (6), (7), (8), (9), (10), (11), (12), (13), (14), (15), (16), (17), (18), (19), (20), (21), (22), (23), (25), (27), (28), (29), […], (31), (32), (33), (34), (35), (36), (37), (38), (39), (41), (44), (45), (46), (47) and (48) respectively, was diluted with water so that the active ingredient concentration came to 500 ppm to prepare a pesticidal solution for test.
# 0.7 ml of above pesticidal solution for test was added to 100 ml of ion exchanged water (active ingredient concentration: 3.5 ppm). Twenty last-instar larvae of Culex pipiens pallens were set free in the solution. After one day, the number of surviving and dead Culex pipiens pallens was examined and the rate of dead pests was calculated.
# Musca domestica = assay: Test Example 3: treated filter paper with sucrose bait, Musca domestica; settings: read-out: rate of dead pests
# Protocol: (§1) The formulation obtained according to Formulation Example 5 using the compound of the present invention (2), (3), (4), (6), (7), (8), (11), (12), (13), (15), (16), (19), (20), (21), (22), (28), (29), (30), (31), (32), (33), (34), (36), (37), (38) and (39) respectively, was diluted with water so that the active ingredient concentration came to 500 ppm to prepare a pesticidal solution for test.
# (§2) On the bottom of a polyethylene cup having a diameter of 5.5 cm, a filter paper having the same diameter was laid, and 0.7 ml of the above pesticidal solution for test was added dropwise on the filter paper, followed by putting 30 mg of sucrose on it uniformly as a bait. Ten female Musca domestica imagoes were set free in the polyethylene cup and covered it with a lid. After 24 hours, the number of surviving and dead Musca domestica was examined and the rate of dead pests was calculated.
# Blattella germanica = assay: Test Example 4: treated filter paper with sucrose bait, Blattella germanica; settings: 144 h, read-out: rate of dead pests
# Protocol: as §1, with “(8), (9),” for “(8),”, “(16), (18),” for “(16),”, “(22), (27),” for “(22),”, “(34), (35),” for “(34),”, “(38), (43)” for “(38)”, “[…]” for “(39)”
# as §2, with “Two male Blattella germanica” for “Ten female Musca domestica”, “6 days,” for “24 hours,”, “Blattella germanica” for “Musca domestica”
# [1] = active ingredient concentration 3.5 ppm in water, twenty last-instar larvae of Culex pipiens pallens, after one day
# [2] = 500 ppm, 0.7 ml on filter paper, ten female Musca domestica imagoes, after 24 hours
# [3] = 500 ppm, 0.7 ml on filter paper, two male Blattella germanica imagoes, after 6 days
Compound,pest or weed control at 3.5 ppm (Culex pipiens pallens; [1]) [%],pest or weed control at 500 ppm (Blattella germanica; [3]) [%],also measured
"N#CC(C#N)(CCC(F)(F)F)Cn1cccn1 [compound of the present invention (1), (1H-pyrazole-1-yl methyl) (3,3,3-trifluoropropyl) malononitrile]",≥ 95,–,–
"CC(C)c1ccn(CC(C#N)(C#N)CCC(F)(F)F)n1 [compound of the present invention (2), [(3-i-propyl-1H-pyrazole-1-yl)methyl](3,3,3-trifluoropropyl) malononitrile]",≥ 95,100,pest or weed control at 500 ppm (Musca domestica; [2]): ≥ 90%
"CC(C)(C)c1ccn(CC(C#N)(C#N)CCC(F)(F)F)n1 [compound of the present invention (3), [(3-t-butyl-1H-pyrazole-1-yl)methyl](3,3,3-trifluoropropyl) malononitrile]",≥ 95,100,pest or weed control at 500 ppm (Musca domestica; [2]): ≥ 90%
"C=CCC(C#N)(C#N)Cn1ccc(C(C)(C)C)n1 [compound of the present invention (4), allyl [(3-t-butyl-1H-pyrazole-1-yl)methyl]malononitrile]",≥ 95,100,pest or weed control at 500 ppm (Musca domestica; [2]): ≥ 90%
"CC1(C)CCc2cn(CC(C#N)(C#N)CCC(F)(F)F)nc21 [compound of the present invention (5), [(6,6-dimethyl-5,6-dihydro-cyclopenta[c]pyrazole-2(4H)-yl)methyl](3,3,3-trifluoropropyl) malononitrile]",≥ 95,–,–
"N#CC(C#N)(CCC(F)(F)F)Cn1ccc(C(F)(F)F)n1 [compound of the present invention (6), {[3-(trifluoromethyl)-1H-pyrazole-1-yl]methyl}(3,3,3-trifluoropropyl) malononitrile]",≥ 95,100,pest or weed control at 500 ppm (Musca domestica; [2]): ≥ 90%
"C=CCC(C#N)(C#N)Cn1ccc(C(F)(F)F)n1 [compound of the present invention (7), allyl {[3-(trifluoromethyl)-1H-pyrazole-1-yl]methyl}malononitrile]",≥ 95,100,pest or weed control at 500 ppm (Musca domestica; [2]): ≥ 90%
"N#CC(C#N)(CCC(F)(F)F)Cn1ccc(C=O)n1 [compound of the present invention (8), [(3-formyl-1H-pyrazole-1-yl)methyl](3,3,3-trifluoropropyl) malononitrile]",–,–,"pest or weed control at 500 ppm (Musca domestica; Musca domestica, 24 h): ≥ 90%; pest or weed control at 500 ppm (Blattella germanica; Blattella germanica): 100%; pest or weed control at 3.5 ppm (Culex pipiens pallens; Culex pipiens): ≥ 95%"
"N#Cc1ccn(CC(C#N)(C#N)CCC(F)(F)F)n1 [compound of the present invention (9), [(3-cyano-1H-pyrazole-1-yl)methyl](3,3,3-trifluoropropyl) malononitrile]",≥ 95,100,–
"N#CC(C#N)(CCC(F)(F)F)Cn1ccc(-c2ccccc2)n1 [compound of the present invention (10), [(3-phenyl-1H-pyrazole-1-yl)methyl](3,3,3-trifluoropropyl)malononitrile]",≥ 95,–,–
"C=CCC(C#N)(C#N)Cn1cc(Br)c(C(C)(C)C)n1 [compound of the present invention (14), allyl [(4-bromo-3-t-butyl-1H-pyrazole-1-yl)methyl]malononitrile]",≥ 95,–,–
Cc1cc(C)n(CC(C#N)(C#N)CCC(F)(F)F)n1 [compound of the present invention (17)],≥ 95,–,–
Cc1cnn(CC(C#N)(C#N)CCC(F)(F)F)c1 [compound of the present invention (18)],≥ 95,100,–
"COC(=O)c1cnn(CC(C#N)(C#N)CCC(F)(F)F)c1 [compound of the present invention (23), [{4-(methoxycarbonyl)-1H-pyrazole-1-yl}methyl](3,3,3-trifluoropropyl) malononitrile]",≥ 95,–,–
"CCOC(=O)c1cn(CC(C#N)(C#N)CCC(F)(F)F)nc1C(F)(F)F [compound of the present invention (25), {[4-ethoxycarbonyl-3-(trifluoromethyl)-pyrazole-1H-yl]methyl}(3,3,3-trifluoropropyl) malononitrile]",≥ 95,–,–
"N#CC(C#N)(CCC(F)(F)F)Cn1cncn1 [compound of the present invention (27), [(1H-1,2,4-triazole-1-yl)methyl](3,3,3-trifluoropropyl) malononitrile]",≥ 95,100,–
"CCC(C)(C)c1ncn(CC(C#N)(C#N)CCC(F)(F)F)n1 [compound of the present invention (30), {[3-(1,1-dimethylpropyl)-1H-1,2,4-triazole-1-yl]methyl}(3,3,3-trifluoropropyl) malononitrile]",–,100,pest or weed control at 500 ppm (Musca domestica; [2]): ≥ 90%
"C=CCC(C#N)(C#N)Cn1cnc(C(F)(F)C(F)(F)F)n1 [compound of the present invention (35), allyl {[3-(pentafluoroethyl)-1H-1,2,4-triazole 1-yl]methyl}malononitrile]",≥ 95,100,–
"N#Cc1cn(CC(C#N)(C#N)CCC(F)(F)F)c2ccccc12 [compound of the present invention (39), [{3-cyano-1H-indole-1-yl}methyl] (3,3,3-trifluoropropyl) malononitrile]",≥ 95,–,pest or weed control at 500 ppm (Musca domestica; [2]): ≥ 90%
"N#CC(C#N)(CCC(F)(F)F)Cn1cc(C(=O)C(F)(F)F)c2ccccc21 [compound of the present invention (41), [{3-(trifluoroacetyl)-1H-indole-1-yl}methyl](3,3,3-trifluoropropyl) malononitrile]",–,–,pest or weed control at 3.5 ppm (Culex pipiens pallens; Culex pipiens): ≥ 95%
"N#CC(C#N)(CCC(F)(F)F)Cn1cc(SC(F)(Cl)Cl)cn1 [compound of the present invention (43), [(4-{(dichlorofluoromethyl)thio}-1H-pyrazole-1-yl)methyl](3,3,3-trifluoropropyl)malononitrile]",–,100,–
"N#CC(C#N)(CCC(F)(F)F)Cn1cc(SC(F)(Cl)Cl)c2ccccc21 [compound of the present invention (44), [(3-{[dichlorofluoromethyl]thio}-1H-indole-1-yl)methyl](3,3,3-trifluoropropyl) malononitrile]",≥ 95,–,–
"N#Cc1cn(CC(C#N)(C#N)CCC(F)(F)F)cc1C(F)(F)F [compound of the present invention (46), [(3-cyano-4-trifluoromethyl-1H-pyrole-1-yl)methyl](3,3,3-trifluoropropyl) malononitrile]",≥ 95,–,–
"CCOC(=O)c1cn(CC(C#N)(C#N)CCC(F)(F)F)cc1C(F)(F)F [compound of the present invention (47), [(3-ethoxycarbonyl-4-trifluoromethyl-1H-pyrole-1-yl)methyl](3,3,3-trifluoropropyl)malononitrile]",≥ 95,–,–
"N#Cc1ccn(CC(C#N)(C#N)CCC(F)(F)F)c1 [compound of the present invention (48), [(3-cyano-1H-pyrole-1-yl)methyl] (3,3,3-trifluoropropyl) malononitrile]",≥ 95,–,–
